# Data published in ChEMBL document CHEMBL1154013, “Brain-penetrating 2-aminobenzimidazole H(1)-antihistamines for the treatment of insomnia” (Bioorg Med Chem Lett, 2009).
# Legend:
# Histamine H1 receptor = Histamine H1 receptor (Homo sapiens, UniProt P35367); experiment: Displacement of [3H]pyrilamine from human histamine H1 receptor expressed in CHO Flp-In cells by liquid scintillation assay; assay type: cell-based
# Cytochrome P450 2D6 = Cytochrome P450 2D6 (Homo sapiens, UniProt P10635); experiment: Inhibition of CYP2D6; assay type: ADME
# Cytochrome P450 3A4 = Cytochrome P450 3A4 (Homo sapiens, UniProt P08684); experiment: Inhibition of CYP3A4; assay type: ADME
# Plasma = experiment: Drug level in rat plasma assessed per gram of tissue at 1 mg/kg, iv after 2 hrs; assay type: ADME, organism-based; set-up: dose 1 mg/kg, route intravenous; settings: in vivo
# Brain [1] = experiment: Biodistribution in rat brain assessed per gram of tissue at 1 mg/kg, iv after 2 hrs; assay type: ADME, organism-based; set-up: dose 1 mg/kg, route intravenous; settings: in vivo
# [2] = Ratio of drug level in brain to plasma in rat at 1 mg/kg, iv after 2 hrs; assay type: ADME, organism-based; set-up: dose 1 mg/kg, route intravenous
# Brain [3] = experiment: Biodistribution in rat brain at 1 mg/kg, iv after 2 hrs in presence of triprolidine; assay type: ADME, organism-based; set-up: dose 1 mg/kg, route intravenous; settings: in vivo
# [4] = Apparent permeability across human Caco-2 cell membrane; assay type: ADME, cell-based
# Homo sapiens = species on record: Homo sapiens; experiment: Selectivity for human muscarinic M1 receptor over human histamine H1 receptor
# Caco-2 = experiment: Ratio of permeability from apical to basolateral side to basolateral to apical side in human Caco-2 cells; assay type: ADME, cell-based
# [5] = molecular target: T1, Voltage-gated inwardly rectifying potassium channel KCNH2 (Homo sapiens, UniProt Q12809); experiment: Displacement of [3H]dofetolide from human ERG channel expressed in HEK293 cells at 37 degC by liquid scintillation assay; assay type: cell-based
# [6] = molecular target: T2, Muscarinic acetylcholine receptor M1 (Homo sapiens, UniProt P11229); experiment: Displacement of [3H]N-methyl Scopolamine from human muscarinic M1 receptor expressed in CHO Flp-In cells by liquid scintillation assay; assay type: cell-based
# T2 sequence (P11229 whole entry): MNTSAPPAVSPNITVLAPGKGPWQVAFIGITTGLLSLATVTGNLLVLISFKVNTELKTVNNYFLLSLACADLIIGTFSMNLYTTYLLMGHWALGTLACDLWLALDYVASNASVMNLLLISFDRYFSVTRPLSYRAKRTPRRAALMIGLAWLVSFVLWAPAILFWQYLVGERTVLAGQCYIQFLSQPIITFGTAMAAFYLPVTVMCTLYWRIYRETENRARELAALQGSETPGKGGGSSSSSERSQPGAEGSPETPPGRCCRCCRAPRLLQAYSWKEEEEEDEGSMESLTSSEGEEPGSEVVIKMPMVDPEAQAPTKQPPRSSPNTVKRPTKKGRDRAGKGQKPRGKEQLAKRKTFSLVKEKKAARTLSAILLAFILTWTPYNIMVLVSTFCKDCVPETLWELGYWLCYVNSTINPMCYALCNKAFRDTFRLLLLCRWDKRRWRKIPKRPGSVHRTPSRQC
# Rattus norvegicus [7] = experiment: Antihistamine activity in Wistar rat EEG/EMG model assessed as non rapid eye movement sleep stage latency at 30 mg/kg, po administered during activity portion of diurnal cycle 6 hrs after lights-off measured in 4 hrs; assay type: functional
# Rattus norvegicus [8] = experiment: Antihistamine activity in Wistar rat EEG/EMG model assessed as increase in time spent in non rapid eye movement sleep stage at 30 mg/kg, po administered during activity portion of diurnal cycle 6 hrs after lights-off measured in 4 hrs; assay type: functional
# Rattus norvegicus [9] = experiment: Antihistamine activity in Wistar rat EEG/EMG model assessed as rapid eye movement sleep stage at 30 mg/kg, po administered during activity portion of diurnal cycle 6 hrs after lights-off measured in 4 hrs; assay type: functional
# Rattus norvegicus [10] = experiment: Antihistamine activity in Wistar rat EEG/EMG model assessed as longest 3 REM bouts at 30 mg/kg, po administered during activity portion of diurnal cycle 6 hrs after lights-off measured in 6 hrs; assay type: functional
# Rattus norvegicus [11] = experiment: Antihistamine activity in Wistar rat EEG/EMG model assessed as rapid eye movement sleep stage latency at 30 mg/kg, po administered during activity portion of diurnal cycle 6 hrs after lights-off measured in 4 hrs; assay type: functional
# [12] = Ratio of drug level in brain to plasma in rat at 10 mg/kg, po after 4 hrs; assay type: ADME, organism-based; set-up: dose 10 mg/kg, route oral
# [13] = Clearance in Sprague-Dawley rat at 10 mg/kg, po; assay type: ADME, organism-based; set-up: dose 10 mg/kg, route oral; settings: in vivo
# [14] = Bioavailability in Sprague-Dawley rat at 5 mg/kg, iv; assay type: ADME, organism-based; settings: in vivo, read-out: Drug uptake
# Rattus norvegicus [15] = experiment: Antihistamine activity in Wistar rat EEG/EMG model assessed as longest 3 NREM bouts at 30 mg/kg, po administered during activity portion of diurnal cycle 6 hrs after lights-off measured in 6 hrs; assay type: functional
# Brain [16] = experiment: Biodistribution in Sprague-Dawley rat brain at 10 mg/kg, po assessed per gram of tissue after 4 hrs; settings: in vivo
# [17] = Drug level in Sprague-Dawley rat plasma at 10 mg/kg, po after 4 hrs; settings: read-out: Drug uptake
# [18] = Ratio of drug level in brain to plasma in rat at 30 mg/kg, po after 4 hrs; assay type: ADME, organism-based; set-up: dose 30 mg/kg, route oral
# [19] = molecular target: T1, Voltage-gated inwardly rectifying potassium channel KCNH2; experiment: Inhibition of human ERG channel expressed in HEK293 cells by patch clamp assay; assay type: cell-based
# Cytochrome P450 3A4, sequence (P08684 whole entry): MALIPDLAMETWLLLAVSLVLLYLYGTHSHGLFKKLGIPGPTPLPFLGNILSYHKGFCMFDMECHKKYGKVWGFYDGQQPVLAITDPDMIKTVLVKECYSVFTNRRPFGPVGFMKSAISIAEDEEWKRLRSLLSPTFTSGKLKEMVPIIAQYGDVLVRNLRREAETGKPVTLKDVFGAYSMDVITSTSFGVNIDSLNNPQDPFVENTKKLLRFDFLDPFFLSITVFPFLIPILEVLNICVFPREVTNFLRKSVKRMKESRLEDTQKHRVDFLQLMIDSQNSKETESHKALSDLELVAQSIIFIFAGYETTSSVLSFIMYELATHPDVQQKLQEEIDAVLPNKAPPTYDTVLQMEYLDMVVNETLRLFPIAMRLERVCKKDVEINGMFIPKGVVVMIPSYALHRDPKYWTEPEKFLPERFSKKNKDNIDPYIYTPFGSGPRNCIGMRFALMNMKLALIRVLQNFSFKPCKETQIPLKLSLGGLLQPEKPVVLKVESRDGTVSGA
# T1 sequence (Q12809 whole entry): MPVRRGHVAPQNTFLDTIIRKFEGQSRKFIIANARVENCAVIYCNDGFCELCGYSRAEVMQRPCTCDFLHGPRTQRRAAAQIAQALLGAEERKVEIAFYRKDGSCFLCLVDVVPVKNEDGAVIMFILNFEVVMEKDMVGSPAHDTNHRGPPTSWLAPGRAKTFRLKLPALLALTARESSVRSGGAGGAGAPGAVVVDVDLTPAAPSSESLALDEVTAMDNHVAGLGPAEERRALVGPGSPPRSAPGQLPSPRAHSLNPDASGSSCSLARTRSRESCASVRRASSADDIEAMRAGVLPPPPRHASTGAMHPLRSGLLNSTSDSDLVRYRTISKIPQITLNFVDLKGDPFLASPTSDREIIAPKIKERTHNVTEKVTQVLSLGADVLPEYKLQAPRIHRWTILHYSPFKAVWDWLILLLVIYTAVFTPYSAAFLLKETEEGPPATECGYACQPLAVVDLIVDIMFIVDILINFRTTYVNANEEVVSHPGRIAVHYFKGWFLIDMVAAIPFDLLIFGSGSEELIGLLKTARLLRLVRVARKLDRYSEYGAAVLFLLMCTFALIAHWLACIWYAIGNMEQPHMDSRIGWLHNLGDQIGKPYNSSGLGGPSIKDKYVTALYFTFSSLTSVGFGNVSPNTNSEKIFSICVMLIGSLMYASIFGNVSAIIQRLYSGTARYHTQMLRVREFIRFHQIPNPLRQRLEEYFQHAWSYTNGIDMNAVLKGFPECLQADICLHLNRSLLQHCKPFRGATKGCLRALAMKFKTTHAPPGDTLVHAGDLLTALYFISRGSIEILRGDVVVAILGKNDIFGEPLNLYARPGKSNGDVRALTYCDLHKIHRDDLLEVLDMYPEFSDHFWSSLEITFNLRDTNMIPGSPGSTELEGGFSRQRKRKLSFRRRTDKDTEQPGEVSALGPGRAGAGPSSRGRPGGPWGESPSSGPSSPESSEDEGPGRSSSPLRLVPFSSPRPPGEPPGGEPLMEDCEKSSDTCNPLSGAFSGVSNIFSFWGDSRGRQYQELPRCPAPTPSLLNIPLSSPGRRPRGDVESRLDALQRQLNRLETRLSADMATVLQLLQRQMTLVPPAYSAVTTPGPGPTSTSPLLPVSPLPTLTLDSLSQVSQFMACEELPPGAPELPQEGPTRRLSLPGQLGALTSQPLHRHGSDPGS
# Histamine H1 receptor, sequence (P35367 whole entry): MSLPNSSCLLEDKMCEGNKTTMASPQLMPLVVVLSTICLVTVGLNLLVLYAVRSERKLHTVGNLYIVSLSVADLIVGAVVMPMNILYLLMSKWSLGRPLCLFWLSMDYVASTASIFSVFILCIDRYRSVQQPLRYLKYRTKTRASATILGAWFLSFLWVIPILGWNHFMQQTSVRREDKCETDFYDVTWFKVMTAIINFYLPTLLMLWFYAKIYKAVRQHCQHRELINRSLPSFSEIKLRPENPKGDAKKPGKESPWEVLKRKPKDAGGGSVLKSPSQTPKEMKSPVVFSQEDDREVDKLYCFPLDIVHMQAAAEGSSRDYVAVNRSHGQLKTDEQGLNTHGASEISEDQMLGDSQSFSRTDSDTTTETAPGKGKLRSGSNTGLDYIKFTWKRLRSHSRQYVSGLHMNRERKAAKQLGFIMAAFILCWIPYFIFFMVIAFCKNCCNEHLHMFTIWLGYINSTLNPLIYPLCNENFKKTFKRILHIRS
# Cytochrome P450 2D6, sequence (P10635 whole entry): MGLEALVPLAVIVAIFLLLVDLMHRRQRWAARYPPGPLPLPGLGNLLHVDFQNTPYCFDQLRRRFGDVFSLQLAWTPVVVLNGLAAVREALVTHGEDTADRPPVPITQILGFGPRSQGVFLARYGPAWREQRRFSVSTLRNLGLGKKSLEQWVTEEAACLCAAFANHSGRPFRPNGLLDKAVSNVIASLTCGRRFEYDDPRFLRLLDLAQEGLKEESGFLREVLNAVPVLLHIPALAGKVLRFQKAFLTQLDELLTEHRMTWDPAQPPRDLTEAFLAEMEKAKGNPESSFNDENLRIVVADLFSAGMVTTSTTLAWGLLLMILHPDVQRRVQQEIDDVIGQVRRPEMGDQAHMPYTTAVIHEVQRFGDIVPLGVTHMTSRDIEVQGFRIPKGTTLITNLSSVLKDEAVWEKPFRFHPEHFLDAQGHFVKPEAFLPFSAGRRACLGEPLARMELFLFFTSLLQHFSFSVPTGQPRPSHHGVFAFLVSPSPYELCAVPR
SMILES,Ki (Histamine H1 receptor; read-out: Ki) [nM],IC50 (Cytochrome P450 2D6; read-out: IC50) [nM],IC50 (Cytochrome P450 3A4) [nM],Selectivity ratio (Homo sapiens),Ki [5] [nM],also measured
Fc1ccc(Cn2c(N3CCC(n4cccn4)CC3)nc3ccccc32)cc1,18.3,1480,> 5000,–,–,–
COCCN(C)C1CCN(c2nc3ccccc3n2Cc2ccc(F)cc2)CC1,2.2,4440,> 5000,–,–,–
Cc1ccc(/C(=C\CN2CCCC2)c2ccccn2)cc1 [TRIPROLIDINE],–,–,–,–,–,Drug uptake (Plasma): 7.1 ng/g; Drug uptake (Brain [1]): 55.6 ng/g; Kp at 2 h [2]: 4.5; Drug uptake (Brain [3]): 55.6 ng
O=C1CCCCN1C1CCN(c2nc3ccccc3n2Cc2ccc(F)cc2)CC1,6.6,4350,> 5000,> 1000,> 7500,Papp [4]: 12.4 ×10⁻⁶ cm/s; Ratio (Caco-2): 0.6
CN(Cc1ccccc1)C1CCN(c2nc3ccccc3n2Cc2ccc(F)cc2)CC1,3.6,–,–,–,–,Ki ([6]; read-out: Ki): 3580 nM; IC50 (Cytochrome P450 2D6): 805 nM
Cc1ccc(-c2nc3ccc(C)cn3c2CC(=O)N(C)C)cc1 [ZOLPIDEM],–,–,–,–,–,Time (Rattus norvegicus [7]): 7 min; Activity (Rattus norvegicus [8]): 48.3%; Activity (Rattus norvegicus [9]): 0.4%; Time (Rattus norvegicus [10]): 1.4 min; Time (Rattus norvegicus [11]): 186 min
CN(CC1CCOCC1)C1CCN(c2nc3ccccc3n2Cc2ccc(F)cc2)CC1,–,11000,> 5000,–,–,Drug uptake (Plasma): 19.2 ng/g; Time (Rattus norvegicus [7]): 21 min; Kp at 4 h [12]: 10; CL/F [13]: 134 mL/min/kg; Activity (Rattus norvegicus [8]): 47.2%; Drug uptake (Brain [1]): 104 ng/g; bioavailability [14]: 2%; Time (Rattus norvegicus [15]): 11 min; Drug uptake (Brain [16]): 94 ng/g; Activity (Rattus norvegicus [9]): 2.6%; Kp at 2 h [2]: 6.3; Time (Rattus norvegicus [10]): 0.5 min; concentration at 4 h [17]: 9 ng/mL; Drug uptake (Brain [3]): 39.4 ng; Time (Rattus norvegicus [11]): 110 min
CNC1CCN(c2nc3ccccc3n2Cc2ccc(F)cc2)CC1,2.4,–,–,–,–,Ki ([6]; read-out: Ki): 988 nM; IC50 (Cytochrome P450 2D6): 6660 nM
Fc1ccc(Cn2c(N3CCC(NCC4CCOCC4)CC3)nc3ccccc32)cc1,4.5,12100,> 5000,> 1000,426,–
CN(C1CCOCC1)C1CCN(c2nc3ccccc3n2Cc2ccc(F)cc2)CC1,–,6360,–,–,–,Drug uptake (Plasma): 18.1 ng/g; Ki [6]: 14700 nM; Drug uptake (Brain [1]): 55 ng/g; Ki (Histamine H1 receptor): 3.3 nM; Kp at 2 h [2]: 3.5; Drug uptake (Brain [3]): 39.4 ng
CN(c1ncccn1)C1CCN(c2nc3ccccc3n2Cc2ccc(F)cc2)CC1,75.2,–,–,–,–,Ki ([6]; read-out: Ki): > 10000 nM; IC50 (Cytochrome P450 2D6): 1040 nM
CN(c1ccccc1)C1CCN(c2nc3ccccc3n2Cc2ccc(F)cc2)CC1,–,> 20000,–,–,–,Ki [6]: > 10000 nM; Ki (Histamine H1 receptor): 80.5 nM
CN(CCc1ccccc1)C1CCN(c2nc3ccccc3n2Cc2ccc(F)cc2)CC1,2.4,–,–,–,–,Ki ([6]; read-out: Ki): 89 nM; IC50 (Cytochrome P450 2D6): 502 nM
Cc1cnn(C2CCN(c3nc4ccccc4n3Cc3ccc(F)cc3)CC2)c1,–,–,–,–,–,Kp at 4 h [18]: 2.3
Cc1ccc(Cn2c(N3CCC(N(C)C)CC3)nc3ccccc32)cc1,1.5,7210,> 5000,> 1000,73,–
Fc1ccc(Cn2c(N3CCC(n4cccc4)CC3)nc3ccccc32)cc1,59.3,1530,> 5000,> 1000,157,–
CN(CC1CCCCC1)C1CCN(c2nc3ccccc3n2Cc2ccc(F)cc2)CC1,–,360,–,–,–,Ki [6]: 3860 nM; Ki (Histamine H1 receptor): 4.4 nM
CN(C)CCN(C)C1CCN(c2nc3ccccc3n2Cc2ccc(F)cc2)CC1,2.9,6130,> 5000,> 1000,776,–
CN(CCO)C1CCN(c2nc3ccccc3n2Cc2ccc(F)cc2)CC1,3.2,35100,> 5000,> 1000,116,–
CN(c1nccc(=O)[nH]1)C1CCN(c2nc3ccccc3n2Cc2ccc(F)cc2)CC1 [MIZOLASTINE],2.7,–,–,–,7260,Drug uptake (Plasma): 6.3 ng/g; Ki ([6]; read-out: Ki): > 10000 nM; Drug uptake (Brain [1]): 0 ng/g; IC50 [19]: 441 nM; Drug uptake (Brain [3]): 55.6 ng; IC50 (Cytochrome P450 2D6): > 20000 nM
COc1ccc(Cn2c(N3CCC(N(C)C)CC3)nc3ccccc32)cc1,2.4,6070,> 5000,–,–,–
COc1ccc(Cn2c(N3CCC(NCC4CCOCC4)CC3)nc3ccccc32)cc1,14.1,16300,> 5000,> 1000,1460,–
COc1ccc(Cn2c(N3CCC(N(C)CC4CCOCC4)CC3)nc3ccccc32)cc1,14.1,8180,> 5000,> 1000,102,–
Fc1ccc(Cn2c(N3CCC(n4ccnc4)CC3)nc3ccccc32)cc1,1.3,1120,72,> 1000,137,–
COc1ccc(Cn2c(N3CCC(n4cc(C)cn4)CC3)nc3ccccc32)cc1,7.1,7320,> 5000,> 1000,> 5000,–
CN(C)C1CCN(c2nc3ccccc3n2Cc2ccc(F)cc2)CC1,1.8,12800,> 5000,> 1000,57,Drug uptake (Plasma): 10.9 ng/g; Drug uptake (Brain [1]): 50 ng/g; Kp at 2 h [2]: 4.6; Drug uptake (Brain [3]): 55.3 ng
CN(C1CCCCC1)C1CCN(c2nc3ccccc3n2Cc2ccc(F)cc2)CC1,2.8,–,–,–,–,Ki ([6]; read-out: Ki): 2740 nM; IC50 (Cytochrome P450 2D6): 2050 nM
